These are literature values, as cited in patent US20260174718A1, “MODULATORS OF mTORC1 ACTIVITY AND USES THEREOF” (Navitor Pharmaceuticals, Inc., priority 2022, published 2026).

The data set concerns mice. The settings on record: ketamine 2.5 mg/kg, intraperitoneally.

For the compound `CNC1(c2ccccc2Cl)CCCCC1=O` (stereo not shown) [ketamine], the “effect of ketamine challenge alone in the forced swim test” value is listed as “ineffective”.
